Measured values reported in patent US4564614A, “Antiinflammatory methods” (priority 1985, dated 1986).

How the values were obtained:
[1] = test system: piroxicam-induced gastric lesions; assay: animal or person; assay type: in vivo, rat (CD strain, Sprague-Dawley); conditions: for Lesions/Rat (mean +/- SE): with 120 mg/kg ethanolamine salt of piroxicam; for Significance p < 0.05: Student's two-tailed t test vs piroxicam-only control; for reduction of piroxicam-induced gastric lesions: healthy fasted rat
Experimental: Adult male "specific pathogen free" rats weighing 140-160 grams of the CD strain (Sprague-Dawley) were obtained from Charles River Breeding Laboratories (Kingston, N.Y.) The animals were acclimated for approximately one week and tested when they reached a body weight of 200-225 grams. The rats were fasted for 16 hours and randomized into groups consisting of 8 to 20 animals which were normalized with regard to their average body weight.
Gastric ulcers were induced in the animals by orally dosing them with a single 120 mg/kg dose of piroxicam (ethanolamine salt) in 2 ml. of aqueous 0.1% methylcellulose (pH=6.8). Those animals receiving a second medicinal agent separately received the second drug in an additional 2 ml. of the same medium at about the same time. Six and one-half hours later, the animals were sacrificed by cervical dislocation and autopsied. The stomachs were surgically removed, dissected along the greater curvature and rinsed with cold water. The stomachs were individually scored for both linear and punctuate lesions. The total number of lesions was used for scoring purposes. The data obtained from each group of rats was analyzed after calculation of the mean number ± the standard error of total gastric lesions. The values obtained were also compared to the controls which received only piroxicam by the two-tailed Student's T-Test for non-paired data.

[2] = 50-150 mg/day for 3 months, rheumatoid arthritis patients; cited from earlier work
rheumatoid arthritis = conditions: 50-150 mg/day for 3 months, rheumatoid arthritis patients, most taking aspirin; cited from earlier work
ulcers = conditions: 1.1 mg/kg, injection; cited from earlier work
gastric ulcers = conditions: subcutaneous injection; cited from earlier work

## Cc1ncc(CO)c(CO)c1O.Cl [Pyridoxine Hydrochloride, pyridoxine hydrochloride]
[1]; 3.3 mg/kg oral, 10 rats
  Lesions/Rat (mean +/- SE): 7.0 (1.1)
[1]; 10 mg/kg oral, 30 rats
  Lesions/Rat (mean +/- SE): 4.2 (1.2)
[1]; 33 mg/kg oral, 50 rats
  Lesions/Rat (mean +/- SE): 3.9 (1.1)
[1]; 33 mg/kg oral
  Significance p < 0.05: + (p < 0.05)
[1]; 100 mg/kg oral, 20 rats
  Lesions/Rat (mean +/- SE): 2.7 (1.1)
[1]; 100 mg/kg oral
  Significance p < 0.05: + (p < 0.05)
[1]; Rattus norvegicus, 6.5 h, oral, linear regression analysis, 120 mg/kg ethanolamine salt of piroxicam, read-out: ED50 (dose required to inhibit 50% of control gastric lesion)
  ED50: 33 mg/kg
[2]
  increase in plasma levels of pyridoxal phosphate: 2-5 fold
Rheumatoid arthritis
  clinical improvements in the disease: no clinical improvements

## Cc1ncc(CO)c(CO)c1O [Pyridoxine, pyridoxine]
ulcers
  frequency of ulcers: reduce the frequency of ulcers
Gastric ulcers
  healing of gastric ulcers: not promote the healing
  pain of gastric ulcers: alleviate the pain

## CC(=O)Nc1ccc(O)cc1 [acetaminophen]
[1]
  reduction of piroxicam-induced gastric lesions: significantly reduce

## CN1C(=O)CN=C(c2ccccc2)c2cc(Cl)ccc21 [diazepam]
[1]
  reduction of piroxicam-induced gastric lesions: significantly reduce

## CN(C)CCC=C1c2ccccc2COc2ccccc21 [doxepin]
[1]
  reduction of piroxicam-induced gastric lesions: significantly reduce

## c1ccc(CCNc2nc(-c3ccccc3)cs2)cc1 [fanetizole]
[1]
  reduction of piroxicam-induced gastric lesions: significantly reduce

## CC(C)(C)NCC(O)c1ccc(O)c(CO)n1 (centres unmarked) [pirbuterol]
[1]
  reduction of piroxicam-induced gastric lesions: significantly reduce
